Measured values taken from ChEMBL document CHEMBL5442219.

Key:
Conditions in all cases: Compound concentration 10 µM
[1] = molecular target: Translocator protein (Homo sapiens) (UniProt P30536)
Description: PDSP Primary Binding target: TSPO - Compounds are tested at 10 uM concentration, plate are incubated at room temperature in the dark for 90 minutes. Reaction are stopped by vacuum filtration onto 0.3% polyethyleneimine soaked filter mats using Filtermate harvester. Scintilation cocktail is then melted onto microwave-dried filters on a hot plate and the radio activity is counted in Microbia counter.

[2] = molecular target: T1, Muscarinic acetylcholine receptor M4 (Homo sapiens) (UniProt P08173)
T1 sequence (whole entry): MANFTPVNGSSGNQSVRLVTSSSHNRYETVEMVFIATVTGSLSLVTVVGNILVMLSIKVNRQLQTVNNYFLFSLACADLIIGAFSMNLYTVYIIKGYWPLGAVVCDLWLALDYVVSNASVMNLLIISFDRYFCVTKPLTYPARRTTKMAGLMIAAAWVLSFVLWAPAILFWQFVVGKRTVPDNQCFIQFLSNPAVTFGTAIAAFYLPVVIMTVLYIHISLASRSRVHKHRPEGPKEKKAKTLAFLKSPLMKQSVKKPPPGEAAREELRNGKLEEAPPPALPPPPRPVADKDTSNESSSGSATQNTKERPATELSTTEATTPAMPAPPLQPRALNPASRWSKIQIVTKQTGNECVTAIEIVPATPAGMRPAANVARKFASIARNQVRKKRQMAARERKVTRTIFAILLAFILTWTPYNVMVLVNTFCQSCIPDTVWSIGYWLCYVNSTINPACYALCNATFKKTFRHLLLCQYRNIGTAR
Description: PDSP Primary Binding target: CHRM4 - Compounds are tested at 10 uM concentration, plate are incubated at room temperature in the dark for 90 minutes. Reaction are stopped by vacuum filtration onto 0.3% polyethyleneimine soaked filter mats using Filtermate harvester. Scintilation cocktail is then melted onto microwave-dried filters on a hot plate and the radio activity is counted in Microbia counter.

[3] = molecular target: T2, Muscarinic acetylcholine receptor M1 (Homo sapiens) (UniProt P11229)
T2 sequence (whole entry): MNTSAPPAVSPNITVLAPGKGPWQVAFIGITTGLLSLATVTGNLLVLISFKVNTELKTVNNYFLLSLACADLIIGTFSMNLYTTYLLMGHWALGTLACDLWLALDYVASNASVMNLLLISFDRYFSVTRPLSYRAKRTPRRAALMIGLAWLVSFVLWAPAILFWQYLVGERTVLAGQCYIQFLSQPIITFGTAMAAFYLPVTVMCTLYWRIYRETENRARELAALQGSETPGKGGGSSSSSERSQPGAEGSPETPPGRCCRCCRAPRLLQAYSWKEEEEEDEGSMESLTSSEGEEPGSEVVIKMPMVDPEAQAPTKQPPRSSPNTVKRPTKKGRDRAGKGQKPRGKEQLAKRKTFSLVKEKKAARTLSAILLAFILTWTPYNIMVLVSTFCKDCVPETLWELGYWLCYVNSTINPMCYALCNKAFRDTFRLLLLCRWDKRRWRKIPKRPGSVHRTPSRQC
Description: PDSP Primary Binding target: CHRM1 - Compounds are tested at 10 uM concentration, plate are incubated at room temperature in the dark for 90 minutes. Reaction are stopped by vacuum filtration onto 0.3% polyethyleneimine soaked filter mats using Filtermate harvester. Scintilation cocktail is then melted onto microwave-dried filters on a hot plate and the radio activity is counted in Microbia counter.

[4] = molecular target: T3, 5-hydroxytryptamine receptor 2C (Homo sapiens) (UniProt P28335)
T3 sequence (whole entry): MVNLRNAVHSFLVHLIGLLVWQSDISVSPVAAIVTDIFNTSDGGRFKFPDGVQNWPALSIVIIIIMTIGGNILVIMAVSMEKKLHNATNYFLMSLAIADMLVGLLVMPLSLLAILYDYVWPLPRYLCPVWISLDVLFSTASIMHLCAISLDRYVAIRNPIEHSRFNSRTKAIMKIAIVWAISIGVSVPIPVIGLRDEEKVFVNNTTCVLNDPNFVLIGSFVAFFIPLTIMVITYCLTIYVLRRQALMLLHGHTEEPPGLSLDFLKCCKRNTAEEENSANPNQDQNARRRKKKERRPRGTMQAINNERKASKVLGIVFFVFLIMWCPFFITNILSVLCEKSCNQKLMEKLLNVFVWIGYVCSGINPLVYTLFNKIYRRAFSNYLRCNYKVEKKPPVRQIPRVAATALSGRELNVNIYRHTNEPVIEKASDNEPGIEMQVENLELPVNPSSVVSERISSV
Description: PDSP Primary Binding target: HTR2C - Compounds are tested at 10 uM concentration, plate are incubated at room temperature in the dark for 90 minutes. Reaction are stopped by vacuum filtration onto 0.3% polyethyleneimine soaked filter mats using Filtermate harvester. Scintilation cocktail is then melted onto microwave-dried filters on a hot plate and the radio activity is counted in Microbia counter.

[5] = molecular target: T4, Alpha-1B adrenergic receptor (Homo sapiens) (UniProt P35368)
T4 sequence (whole entry): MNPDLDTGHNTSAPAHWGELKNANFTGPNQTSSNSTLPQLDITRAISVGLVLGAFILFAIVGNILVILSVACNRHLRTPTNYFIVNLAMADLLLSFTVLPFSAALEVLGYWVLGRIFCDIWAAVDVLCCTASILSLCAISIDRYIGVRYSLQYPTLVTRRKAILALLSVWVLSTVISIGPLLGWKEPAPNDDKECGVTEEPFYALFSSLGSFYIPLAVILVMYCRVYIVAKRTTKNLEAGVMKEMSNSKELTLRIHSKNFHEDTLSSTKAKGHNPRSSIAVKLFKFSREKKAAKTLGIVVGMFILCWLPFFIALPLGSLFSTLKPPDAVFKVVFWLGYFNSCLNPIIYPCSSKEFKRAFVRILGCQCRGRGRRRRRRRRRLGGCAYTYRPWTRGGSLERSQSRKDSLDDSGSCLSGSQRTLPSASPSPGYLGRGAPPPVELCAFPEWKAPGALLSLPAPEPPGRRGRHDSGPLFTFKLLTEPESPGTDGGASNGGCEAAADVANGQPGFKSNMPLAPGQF
Description: PDSP Primary Binding target: ADRA1B - Compounds are tested at 10 uM concentration, plate are incubated at room temperature in the dark for 90 minutes. Reaction are stopped by vacuum filtration onto 0.3% polyethyleneimine soaked filter mats using Filtermate harvester. Scintilation cocktail is then melted onto microwave-dried filters on a hot plate and the radio activity is counted in Microbia counter.

[6] = molecular target: T5, 5-hydroxytryptamine receptor 1A (Homo sapiens) (UniProt P08908)
T5 sequence (whole entry): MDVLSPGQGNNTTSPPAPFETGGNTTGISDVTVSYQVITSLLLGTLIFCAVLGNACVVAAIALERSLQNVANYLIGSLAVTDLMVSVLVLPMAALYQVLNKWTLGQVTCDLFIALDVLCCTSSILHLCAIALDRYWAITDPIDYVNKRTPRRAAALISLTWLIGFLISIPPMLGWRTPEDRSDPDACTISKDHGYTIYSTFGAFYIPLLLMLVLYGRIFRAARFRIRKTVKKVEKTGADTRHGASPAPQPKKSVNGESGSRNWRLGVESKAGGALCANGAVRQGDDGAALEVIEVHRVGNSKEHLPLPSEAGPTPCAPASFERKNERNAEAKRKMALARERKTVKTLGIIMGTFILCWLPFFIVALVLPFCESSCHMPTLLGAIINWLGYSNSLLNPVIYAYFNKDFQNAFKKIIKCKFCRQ
Description: PDSP Primary Binding target: HTR1A - Compounds are tested at 10 uM concentration, plate are incubated at room temperature in the dark for 90 minutes. Reaction are stopped by vacuum filtration onto 0.3% polyethyleneimine soaked filter mats using Filtermate harvester. Scintilation cocktail is then melted onto microwave-dried filters on a hot plate and the radio activity is counted in Microbia counter.

[7] = molecular target: T6, Alpha-1A adrenergic receptor (Homo sapiens) (UniProt P35348)
T6 sequence (whole entry): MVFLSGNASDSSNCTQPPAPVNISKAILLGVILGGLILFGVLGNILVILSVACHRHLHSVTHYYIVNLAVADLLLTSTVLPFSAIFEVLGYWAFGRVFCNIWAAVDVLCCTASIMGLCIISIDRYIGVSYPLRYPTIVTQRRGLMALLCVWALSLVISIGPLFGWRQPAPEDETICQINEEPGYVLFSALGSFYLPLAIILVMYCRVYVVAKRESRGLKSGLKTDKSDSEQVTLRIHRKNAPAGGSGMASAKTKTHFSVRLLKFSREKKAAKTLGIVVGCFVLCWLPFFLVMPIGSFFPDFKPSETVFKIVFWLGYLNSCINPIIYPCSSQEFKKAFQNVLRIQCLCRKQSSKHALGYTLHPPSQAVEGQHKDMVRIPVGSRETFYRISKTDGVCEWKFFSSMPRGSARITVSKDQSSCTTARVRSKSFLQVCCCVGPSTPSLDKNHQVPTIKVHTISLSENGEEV
Description: PDSP Primary Binding target: ADRA1A - Compounds are tested at 10 uM concentration, plate are incubated at room temperature in the dark for 90 minutes. Reaction are stopped by vacuum filtration onto 0.3% polyethyleneimine soaked filter mats using Filtermate harvester. Scintilation cocktail is then melted onto microwave-dried filters on a hot plate and the radio activity is counted in Microbia counter.

[8] = molecular target: Histamine H1 receptor (Homo sapiens) (UniProt P35367)
Histamine H1 receptor (Homo sapiens), sequence (P35367 whole entry): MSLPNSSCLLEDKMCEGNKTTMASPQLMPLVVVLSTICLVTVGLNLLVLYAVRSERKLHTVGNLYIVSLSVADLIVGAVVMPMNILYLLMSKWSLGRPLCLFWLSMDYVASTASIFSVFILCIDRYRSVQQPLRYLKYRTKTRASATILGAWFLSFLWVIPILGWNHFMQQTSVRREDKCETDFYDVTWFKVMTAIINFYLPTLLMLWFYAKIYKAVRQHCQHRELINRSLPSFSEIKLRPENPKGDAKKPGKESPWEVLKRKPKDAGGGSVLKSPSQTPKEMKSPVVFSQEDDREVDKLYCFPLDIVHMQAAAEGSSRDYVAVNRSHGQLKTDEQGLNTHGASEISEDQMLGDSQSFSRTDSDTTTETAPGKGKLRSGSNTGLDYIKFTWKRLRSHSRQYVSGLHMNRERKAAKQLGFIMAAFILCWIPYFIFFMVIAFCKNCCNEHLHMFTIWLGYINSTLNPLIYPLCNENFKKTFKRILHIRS
Description: PDSP Primary Binding target: HRH1 - Compounds are tested at 10 uM concentration, plate are incubated at room temperature in the dark for 90 minutes. Reaction are stopped by vacuum filtration onto 0.3% polyethyleneimine soaked filter mats using Filtermate harvester. Scintilation cocktail is then melted onto microwave-dried filters on a hot plate and the radio activity is counted in Microbia counter.

Translocator protein (Homo sapiens), sequence (P30536 whole entry): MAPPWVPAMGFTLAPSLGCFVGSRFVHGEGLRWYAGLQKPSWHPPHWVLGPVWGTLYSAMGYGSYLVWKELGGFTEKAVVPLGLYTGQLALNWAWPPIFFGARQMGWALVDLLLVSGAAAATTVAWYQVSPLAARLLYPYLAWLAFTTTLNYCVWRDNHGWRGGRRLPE

Row | SMILES | inhibition [1] | inhibition [2] | inhibition [3] | inhibition [4] | inhibition [5] | inhibition [6] | inhibition [7] | inhibition [8]
1 | COc1ccc(OC(F)(F)F)cc1CN[C@H]1CCCN[C@H]1c1ccccc1 | 17.5% | -2.31% | 13.7% | 58.5% | 2.37% | 56.2% | 31.1% | 92.9%
2 | Nc1nc2c(c(N3CCNCC3)n1)CCC1=C2[C@@H]2CCCC[C@@H]2O1 | -6.86% | -0.51% | 8.9% | 7.29% | -8.32% | 49.9% | -7.78% | 55%
3 | Cc1nc(C(=O)N2CCC[C@H]2Cc2nnc(-c3ccccc3)o2)c(-c2ccccc2F)s1 | 57.6% | 39.1% | -9.02% | 4.37% | 9.45% | 3.86% | 1.08% | 30.3%
4 | COc1ccc(Br)cc1S(=O)(=O)NC(=O)/C=C/c1ccccc1Cc1ccc2ccccc2c1 | 17.7% | -8.83% | 4.85% | 26.2% | -0.54% | 9.76% | 17.8% | 9.07%
5 | NC[C@@H]1O[C@H](C23CC4CC(CC(C4)C2)C3)Cc2c1ccc(O)c2O | -5.61% | 8.08% | -5.8% | 31.6% | 56.9% | 14.3% | -1.53% | 38.4%
6 | COc1ccc(NS(=O)(=O)c2sc3ccc(Cl)cc3c2C)cc1N1CCNCC1 | 39.5% | 5.58% | -7.39% | 51.7% | 65.1% | 67.4% | 39.7% | 15.6%
7 | CCCCCNC(=N)N/N=C/c1c[nH]c2ccc(OC)cc12 | 47.4% | 0.53% | 19.6% | 92.8% | 62.5% | 101% | 53.9% | 31.1%
8 | C[C@@H](NCCc1ccc(O)cc1)[C@@H](O)c1ccc(O)cc1 (relative stereo) | 3.95% | 33% | 24.4% | -0.38% | 21.4% | -2.23% | 7.01% | 24.2%
9 | CCCCC#Cc1nc(NC)c2ncn([C@@H]3O[C@H](CO)[C@@H](O)[C@H]3O)c2n1 | 3.46% | 0.76% | -6.77% | 17.8% | 8.1% | 3.96% | -3.3% | 20.6%
10 | CSc1ccc(C(=O)N[C@@H]2CCCC[C@@H]2NC(=O)CNC(=O)c2cc(C(F)(F)F)ccc2NC(=O)NC(C)C)cc1 | 46.9% | 6.91% | 28.4% | 33.2% | -0.4% | 22.6% | 7.53% | 70.6%
11 | CCc1ccc(OCc2ccccc2C(=O)Nc2ccc3nc(C)cc(N)c3c2)cc1 | 54.7% | 65.2% | 74.4% | 91.2% | 60.5% | 9.8% | 45.6% | 7.44%
12 | O=C(Cc1ccc(Cl)c(Cl)c1)N1CCCC[C@H]1CN1CCCC1 | 8.29% | 16.7% | 9.74% | -3.64% | 11.4% | -1.23% | 31.2% | 23.8%
13 | Cc1nc2sccn2c(=O)c1CCN1CCC(=C(c2ccc(F)cc2)c2ccc(F)cc2)CC1 | 31.2% | 1.18% | 18.5% | 97.8% | 95.9% | 30.5% | 96.8% | 98.3%
14 | CCCCCNC(=O)NS(=O)(=O)c1cc([N+](=O)[O-])ccc1NC1CCCCC1 | 34.5% | 4.78% | -6.06% | 11.4% | 13.4% | 1.18% | -4% | 12.8%
15 | Cc1nc(-c2ccc(-c3ccc(C(=O)N4CCc5cc6c(cc54)C4(CCN(C)CC4)CO6)cc3)c(C)c2)no1 | 24.4% | 23% | 66.4% | 85.3% | 16.4% | 9.17% | 27.9% | 33.8%
16 | CN1C(=O)[C@@H](NC(=O)c2cc3ccccc3[nH]2)N=C(c2ccccc2)c2ccccc21 | 59.1% | -8% | 5.19% | 16.1% | -6.37% | -1.26% | 2.69% | -6.55%
17 | Cc1cc(C(=O)N2Cc3cnn(C)c3Nc3ccccc32)ccc1CNC(=O)N1CCC[C@H]1C(=S)N1CCCN(C)CC1 | -9.04% | 63% | 49.6% | -8.65% | -2.71% | -3.18% | -5.86% | 24.4%
